The target in the test is Xanthine dehydrogenase/oxidase (Homo sapiens, UniProt P47989). Briefly: Inhibition of xanthine oxidase.

Ki data for one compound are collected here from ChEMBL document CHEMBL1154593, “Insights into the inhibition of xanthine oxidase by curcumin” (Bioorg Med Chem Lett, 2009).

Xanthine dehydrogenase/oxidase, sequence (P47989 whole entry): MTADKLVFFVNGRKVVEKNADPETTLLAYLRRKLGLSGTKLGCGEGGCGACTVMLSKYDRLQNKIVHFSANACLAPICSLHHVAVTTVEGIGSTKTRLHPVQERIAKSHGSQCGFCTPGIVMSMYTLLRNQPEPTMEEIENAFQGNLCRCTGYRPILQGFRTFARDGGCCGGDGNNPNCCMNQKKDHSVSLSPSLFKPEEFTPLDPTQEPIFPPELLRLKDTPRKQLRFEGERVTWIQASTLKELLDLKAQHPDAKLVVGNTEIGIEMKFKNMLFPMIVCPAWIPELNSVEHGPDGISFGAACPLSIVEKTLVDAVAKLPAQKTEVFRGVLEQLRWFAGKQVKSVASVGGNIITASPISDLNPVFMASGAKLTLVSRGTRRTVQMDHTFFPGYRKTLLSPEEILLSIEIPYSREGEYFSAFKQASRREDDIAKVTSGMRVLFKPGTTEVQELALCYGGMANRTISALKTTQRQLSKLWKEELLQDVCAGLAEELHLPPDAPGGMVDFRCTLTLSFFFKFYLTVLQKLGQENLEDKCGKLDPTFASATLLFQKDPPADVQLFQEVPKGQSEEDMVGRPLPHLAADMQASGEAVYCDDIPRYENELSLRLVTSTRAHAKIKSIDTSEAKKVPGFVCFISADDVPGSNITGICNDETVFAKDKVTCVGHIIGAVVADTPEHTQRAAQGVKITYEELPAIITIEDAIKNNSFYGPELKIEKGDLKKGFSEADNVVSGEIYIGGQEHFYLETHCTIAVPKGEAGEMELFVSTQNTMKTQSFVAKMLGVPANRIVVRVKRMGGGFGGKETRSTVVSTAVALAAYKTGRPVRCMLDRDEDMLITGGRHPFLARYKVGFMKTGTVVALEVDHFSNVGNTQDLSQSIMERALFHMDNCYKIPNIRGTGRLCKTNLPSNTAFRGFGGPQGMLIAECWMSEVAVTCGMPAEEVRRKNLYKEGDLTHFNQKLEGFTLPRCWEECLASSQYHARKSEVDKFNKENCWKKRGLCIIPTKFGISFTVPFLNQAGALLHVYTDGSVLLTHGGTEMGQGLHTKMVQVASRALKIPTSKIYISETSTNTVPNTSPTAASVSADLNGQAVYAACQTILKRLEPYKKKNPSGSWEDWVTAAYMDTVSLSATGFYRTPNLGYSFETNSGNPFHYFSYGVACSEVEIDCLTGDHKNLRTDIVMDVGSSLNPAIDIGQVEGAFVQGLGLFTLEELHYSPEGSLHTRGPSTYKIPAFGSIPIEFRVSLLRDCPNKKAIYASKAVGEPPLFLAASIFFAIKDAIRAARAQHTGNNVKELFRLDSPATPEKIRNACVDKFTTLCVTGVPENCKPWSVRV

Compound `COc1cc(/C=C/C=O)ccc1O` [CONIFERYL ALDEHYDE] gave a Ki of 93.9 µM.
